For data set [1], the system named is MERMUC. In words: MERMUC protein phosphorylation in [32P]-labelled MERMUC/293 cells. The format is cell-based, human. The conditions noted are these: for phosphorylation of MERMUC upon growth factor stimulation: MERMUC overexpressing cells cultured without Dox, HGF 20ng/ml, 5 min. On the procedure:
After labeling the Tet-Off/MERMUC expressing recombinant cells (MERMUC/293 cells) produced above with (^32P] orthophosphate, the cells were stimulated with human recombinant HGF (20ng/ml; 5 min). Next, cell lysate was prepared by lysing cells according to conventional method. Anti-human MERMUC polyclonal antibody prepared as above (Example 2) was added to and reacted with the obtained cell lysate, bound to protein-G Sepharose, and then MERMUC protein and anti-MERMUC polyclonal antibody complex was precipitated by centrifugation.
The precipitate was extracted with 1% SDS and similar immunoprecipitation procedure was performed to reduce the background. The sample prepared by this procedure was separated by SDS-PAGE and analyzed by autoradiography.
Furthermore, MERMUC expression in the above mentioned recombinant cells was confirmed to be constant regardless of the presence or absence of HGF by Western blotting according to conventional method using anti-human MERMUC polyclonal antibody.
The following experiments were conducted similarly as described above: • 1) epidermal growth factor (EGF) was used in place of HGF; • 2) MERMUC expressing cells were treated with HGF signaling suppressor, PI3 kinase inhibitor (LY294002; 10 μM; CALBIOCHEM), before HGF stimulation; • 3) MERMUC expressing cells were treated with HGF signaling suppressor, MEK 1/2 inhibitor (U0126; 10 μM; CALBIOCHEM), before HGF stimulation; • 4) MERMUC expressing cells were treated with PI3 kinase inhibitor (LY294002; 10 μM) before EGF stimulation; and • 5) MERMUC expressing cells were treated with MEK 1/2 inhibitor (U0126; 10 μM) before EGF stimulation.

Data set [2] deals with T1, HGF receptor c-Met β chain (Homo sapiens, UniProt P08581).
T1 construct: expressed in transfected cells; host or cells: yeast AH109 strain (library prey plasmid, human kidney cDNA library, CLONTECH)
T1 sequence (P08581 1300-1390): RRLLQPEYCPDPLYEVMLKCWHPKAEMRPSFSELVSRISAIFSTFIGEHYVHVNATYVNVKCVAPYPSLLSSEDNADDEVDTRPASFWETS
Description: Yeast two-hybrid binding of MERMUC bait proteins to c-Met prey (C-terminal 91 amino acids). To be noted: prey clone No. 3-309 (C-terminal 91 amino acids of human c-Met). On the procedure: The present examination was performed using the previously reported yeast two-hybrid system (references are described above) according to conventional method and the experimental protocols provided with the reagents. […]
The binding ability of MERMUC bait protein derived from each of the bait vectors to the HGF receptor c-Met β chain was analyzed by the yeast two-hybrid system described above. […]
Each of the bait vectors was cointroduced into yeast AH109 strain with human HGF receptor c-Met prey vector (comprising DNA encoding the C-terminal 91 amino acids of the c-Met; Example 1). The binding ability of each of the bait proteins (randomly selected 10 amino acids of the human MERMUC C-terminal region) to the C-terminal region of human c-Met β chain was analyzed by the yeast two-hybrid system similar to the aforementioned Example.

For data set [3], the system named is hepatocytes. In words: Growth factor dependent proliferation of primary hepatocytes of MERMUC-Tg and non-Tg mice. The format is cell-based, mouse. To be noted: 24 hr. On the procedure: Primary cell culture of hepatocytes from liver cells obtained from the liver of each of the MERMUC-Tg mice (8 weeks old, 4 mice) and non-Tg mice (8 weeks old, 4 mice) was prepared by collagenase treatment according to the method of Berry and Friend, and Seglen et al. (Berry & Friend, J. Cell Biol., 1969, Vol. 43, p. 506-520; Seglen et al., Methods in Cell Biol., 1976, Vol. 13, p. 29-83).
Each of the obtained hepatocytes (2×10^3 cells) was cultured in serum-free media for 15 hr, HGF (0, 1 or 3 ng/ml) was added to the media to induce HGF-dependent cell proliferation, and was further cultured. Similarly, cultivation was performed by adding epidermal growth factor (EGF; 0, 1, or 10 ng/ml) in place of HGF to the culture as a control.
After 24 hr from HGF addition, cell numbers were counted using Cell Count Reagent SF (Nacalai tesque) according to the experimental protocol provided with the reagent to calculate the relative cell proliferation rate after HGF (or EGF) addition. Tests were conducted in triplicate.

For data set [4], the system named is liver. Description: HGF-dependent liver enlargement in MERMUC-Tg and non-Tg mice. The format is in vivo. The conditions noted are these: human HGF expression plasmid 28 μg/mouse into tail vein, two days. The source says: It has been reported that HGF is transiently overexpressed in vivo by the injection of HGF expression plasmid DNA into the tail vein of normal mice, causing liver enlargement due to the enhancement of hepatocyte proliferation (Hepatology, 2001, Vol. 33, p848-859). Therefore, to validate the down-regulation activity of MERMUC on HGF receptor mediated signaling, the method in the above mentioned report was applied to MERMUC overexpressing transgenic mice (MERMUC-Tg; 7 weeks old; male; 23-33 g) produced in the previous Example, and the effect due to the expression of MERMUC on liver enlargement induced by HGF overexpression was examined. Human HGF expression plasmid (human HGF-cDNA in pcDNA3; Invitrogen) or plasmid pcDNA3 (mock) was injected into the tail vein of each of MERMUC-Tg mouse and littermate non-Tg mouse at a concentration of 28 μg/mouse (2.3 ml saline) within 5 to 10 seconds. The HGF level in serum of each of the mice was measured using a human HGF ELISA kit (Genzyme Techne) two days after the plasmid injection. The level of HGF production due to the administered plasmid in each animal was evaluated together with the changes in liver weight upon laparotomy.

The subject of data set [5] is C-terminal region of human MERMUC (bait-2, bait-3). Description: Yeast two hybrid screening of human kidney cDNA library with MERMUC baits. The format is binding. To be noted: bait-2 = 123 amino acid portion of the C-terminus of human MERMUC. On the procedure:
Specifically, yeast two hybrid system (Proc. Natl. Acad. Sci. USA., 1991, Vol.88, p.9578-9582) was performed to screen a human kidney cDNA library using cDNA corresponding to the C-terminal region of the human MERMUC as the bait (that is, fishing bait).
Two kinds of bait (bait-2 and bait-3) were designed using each of Ex.-2 and Ex.-3 as the core. Bait-2 corresponds to a 123 amino acid portion of the C-terminus (bait-2) and bait-3 corresponds to the 65 C-terminal amino acids (bait-3).
Each bait vector was obtained by inserting each DNA fragment obtained by digesting each of the PCR products with the restriction enzymes EcoRI and SalI into the EcoRI/SalI site of pGBKT7 vector (leucine biosynthesis gene as a marker; CLONTECH). In yeast, the gene within the vector is produced as a fusion protein ([fusion protein A]) with the DNA binding region (GAL4-DB) of the yeast transcription factor GAL4.
On the other hand, each cDNA of the human kidney derived cDNA library (CLONTECH) that is used for the screening with the bait vector is inserted in pADK vector (tryptophan biosynthesis gene as a marker). Therefore, proteins produced through the expression of each of these cDNAs in yeast are produced as a fusion protein ([fusion protein B]) with the GAL4 transcriptional activation region (GAL4-AD). […]

Chain of C-terminal region of human MERMUC (bait-2, bait-3) (Q8N307 587-709): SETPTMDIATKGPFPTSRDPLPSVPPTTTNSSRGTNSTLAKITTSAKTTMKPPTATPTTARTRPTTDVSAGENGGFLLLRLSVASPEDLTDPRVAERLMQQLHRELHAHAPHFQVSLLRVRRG

Consider `N#CC(=C(/N)Sc1ccccc1N)/C(C#N)=C(/N)Sc1ccccc1N` [MEK 1/2 inhibitor, U0126, reference compound], for which the “suppression of the enhancement of MERMUC phosphorylation” value in data set [1] (cells treated with inhibitor 10 μM before HGF stimulation) was “suppressed only in the cells treated with PI3 kinase inhibitor”.
With “C53: MERMUC bait protein, C-terminal 53 amino acids of C260; amino acids 451-503 of SEQ ID NO: 10 (GENGGFLLLRLSVASPEDLTDPRVAERLMQQLHRELHAHAPHFQVSLLRVRRG; listed as Homo sapiens)”, the “binding activity to the HGF receptor c-Met β chain” value in data set [2] is listed as “possessed the binding activity”.
“EGF: epidermal growth factor, used as control in place of HGF”: the “phosphorylation of MERMUC upon growth factor stimulation” value in data set [1] was “did not show effect to increase phosphorylation of MERMUC”. The “EGF stimulated hepatocyte proliferation” value in data set [3] (MERMUC-Tg and non-Tg hepatocytes, EGF 0, 1 or 10 ng/ml) was “dosage-dependent cell proliferation”.
As to “HGF: hepatocyte growth factor, ligand of c-Met; in b422 supplied by human HGF expression plasmid (human HGF-cDNA in pcDNA3)”, the “increase of the ratio of liver weight to body weight” value in data set [4] (MERMUC-Tg mice) was “about 1.2 times”; in data set [4] (non-Tg mice), “about 1.6 times”. Moreover, the “phosphorylation of MERMUC upon growth factor stimulation” value in data set [1] was “strong signal band”. The “proliferation due to HGF stimulation of hepatocytes” value in data set [3] (MERMUC-Tg derived hepatocytes compared with non-Tg, HGF 0, 1 or 3 ng/ml) is “significant decrease”.
Consider “clone No. 2-211: prey protein: C-terminal 56 amino acids (amino acids 448-503 of SEQ ID NO: 10) of human MERMUC (VSAGENGGFLLLRLSVASPEDLTDPRVAERLMQQLHRELHAHAPHFQVSLLRVRRG; listed as Homo sapiens)”, for which, in data set [5], the “binding ability to the protein derived from bait-2” value is “had binding ability”.

The values above are taken from patent US20050113284A1, “Drug for regenerating tissue and vessel and method therefor” (priority 2001, published 2005).
